Experimental data taken from patent US20260083729A1, “METHODS FOR TREATMENT OF BONE MARROW FAILURE AND RELATED CONDITIONS” (Imago Biosciences, Inc., priority 2022, published 2026).

Tests used:
[1] = tested on: LSK cells (HSC/progenitor cells: Lineage−, Sca-1+, c-Kit+); assay: In vivo expansion of LSK cells in bone marrow of wild-type mice (flow cytometry); set-up: species or system mice (C57/BL6); conditions: oral gavage
Method: (§1) The effect of LSD1 inhibitors on HSCPs was investigated in in vivo studies.
(§2) Animals. Healthy animals with an intact immune system were used for all experiments. All animals were drug and test naïve and not involved in previous procedures. Animals were maintained on a 12 hour light-dark cycle with access to water and standard chow ad libitum. CRADL animal care staff conducted routine husbandry procedures and provided daily care and monitoring of all animals housed in CRADL's animal facilities. 8-week old female C57/BL6 (C57BL/6NCrl) mice were purchased from Charles River. All mice were acclimated for at least 48 hours upon arrival. Mice were assigned to treatment groups based on complete blood counts to achieve congruent profiles, body weight was recorded for dose adjustments, and ear tagged for identification. Investigators were not blinded to the identity of mice or samples. No statistical methods were utilized to determine sample size. The experiments described in this study were designed to use the minimum number of animals required.
(§3) Dosing. To assess the effect of different LSD1 inhibitors on hematopoietic stem and progenitor cells (HSPCs), wild-type mice were administered with Compound 3, Compound 2, or vehicle once daily for 7 days via oral gavage. Administered doses were as indicated in FIGS. 1-5 (Compound 3: 15 and 40 mg/kg, Compound 2, 15, 40, 60, and/or 80 mg/kg).
(§4) Drug preparation. As an example of formulation calculations, a correction factor (compound and lot dependent) of 1.5 will be used (e.g., one lot of Compound 2 actual correction factor 1.67; one lot of Compound 3 actual correction factor 1.69). Vehicle is 30% PEG400 (Millipore Sigma cat #8074850058), 5% Cremophor EL (Med Chem Express cat #HY-Y189) in sterile Milli-Q water.
(§5) Compound 3 or Compound 2 (salt) at a dose of 15 mg/kg dose was prepared by weighing out 0.3 mg×1.5 (example correction factor)=0.45 mg per mouse in 200 μl vehicle solution. Each mouse of 20 g received 200 μl of compound in vehicle solution (volume was corrected for body weight of each mouse at time of dosing). Calculations were scaled appropriately for higher doses. Compound was completely dissolved by swirling and gently pipetting in vehicle. Aliquots were stored for daily usage at 4 C in the dark. On the day of dosing, formulations and vehicle were removed from 4 C and allowed to warm to RT for at least 20 minutes before dosing. Formulations were swirled to achieve a homogenous solution prior to administration for 7 days, once daily, via oral gavage.
(§6) Processing of bones and blood for analysis. 24 hours after the last dose was administered, blood was collected via cheek bleed and mice were subsequently sacrificed via CO2 asphyxiation. Bones were separated from the mice, muscle and tissue removed, and bone marrow cells were isolated from mouse femora and tibiae by centrifugation. Red blood cells (RBC) were lysed by adding cold ACK lysis buffer (Thermo Fisher cat #A1049201) and incubating bone marrow cells (or […] of peripheral blood) on ice for 10 minutes. Following RBC lysis, samples were topped up with an appropriate volume of FACS buffer (PBS+2% BSA) and centrifuged at 3000 rpm for 5 minutes. Cell pellet was resuspended in FACS buffer and filtered through a […] filter to remove aggregated cell clumps and debris. Cells in the filtered suspension were counted and ˜2-3×10^6 cells removed for cell staining.
(§7) Flow Cytometry Analysis. For flow staining, @ 2-3×10e6 cells were centrifuged at 400×g, 5 minutes, 4 C in 1.5 ml centrifuge tubes. Supernatant was aspirated and cells were resuspended in 100 μl of staining cock-tail per tube. Tubes were incubated on ice for 30 minutes in the dark. 1 ml of FACS buffer (PBS+2% FBS) was added to each tube and then centrifuged at 400×g, 5 minutes, 4° C. Supernatant was aspirated, and cells were resuspended at 300 μl per tube in 7-AAD solution (5 μl/ml of FACS Buffer). […]

platelet (PLT) levels = assay: Complete blood count, platelet (PLT) levels, in treated mice; type: in vivo, mice (C57/BL6); conditions: once daily for 7 days, oral gavage
Method: as §2, §3
as §5, with “On the day of dosing, formulations and vehicle were removed from 4 C and allowed to warm to RT for at least 20 minutes before dosing. Formulations were swirled to achieve a homogenous solution prior to administration for 7 days, once daily, via oral gavage.” left out
Processing of bones and blood for analysis. […] Cells in the filtered suspension were counted and ˜2-3×10^6 cells removed for cell staining.
Complete blood counts. Complete blood counts from the peripheral blood sample collected at end of study were measured at IDEXX BioAnalytics.

[2] = tested on: long-term HSC (LT-HSC) cells; assay: In vivo expansion of long-term HSC (LT-HSC) cells in bone marrow of wild-type mice (flow cytometry); set-up: species or system mice (C57/BL6); conditions: oral gavage
Method: as §1, §2, §3, §4, §5, §6, §7

| Compound | in vivo expansion of LSK cells, fold increase ([1]; 40 mg/kg once daily for 7 days) [fold] | number of LSK cells, treated group ([1]; 40 mg/kg once daily for 7 days) | in vivo expansion of LSK cells, fold increase ([1]; 80 mg/kg once daily for 7 days) [fold] | number of LSK cells, treated group ([1]; 80 mg/kg once daily for 7 days) | effect on complete blood count as evidenced by platelet (PLT) levels (platelet (PLT) levels; three higher concentrations) | effect on complete blood count as evidenced by platelet (PLT) levels (platelet (PLT) levels; two concentrations) | in vivo expansion of LT-HSC cells, fold increase ([2]; 40 mg/kg once daily for 7 days) [fold] | number of LT-HSC cells, treated group ([2]; 40 mg/kg once daily for 7 days) | in vivo expansion of LT-HSC cells, fold increase ([2]; 80 mg/kg once daily for 7 days) [fold] | number of LT-HSC cells, treated group ([2]; 80 mg/kg once daily for 7 days) | in vivo expansion of LSK cells, fold increase ([1]; 15 mg/kg once daily for 7 days) [fold] | number of LSK cells, treated group ([1]; 15 mg/kg once daily for 7 days) | in vivo expansion of LT-HSC cells, fold increase ([2]; 15 mg/kg once daily for 7 days) [fold] | number of LT-HSC cells, treated group ([2]; 15 mg/kg once daily for 7 days) |
| --- | --- | --- | --- | --- | --- | --- | --- | --- | --- | --- | --- | --- | --- | --- |
| COc1ccc(-n2nc(NC[C@H]3CCC[C@H](N)C3)cc2-c2ccc(C#N)c(F)c2)cc1 [Compound 2] | 1.7 | 1714 | 2.3 | 2215 | not significantly affected at any dose | not significantly affected at either dose | 1.5 | 250 | 1.6 | 157 | – | – | – | – |
| CN1CCN(C(=O)[C@H](CCCN[C@@H]2C[C@H]2c2ccc(F)cc2)NC(=O)c2ccc(-n3ccnn3)cc2)CC1 [IMG-7289, bomedemstat] | 6 | – | – | – | – | reduced in a dose-dependent manner | 7.5 | 921 | – | – | 2 | 2545 | 2 | 252 |
